Test results as given in patent US6358885B1, “Substituted phenylheterocyclic herbicides” (Mississippi State University, priority 1992, dated 2002).

Tests used:
barnyardgrass = experiment: Test B preemergence/postemergence greenhouse plant response rating 0 to 10; format: in vivo, Echinochloa crus-galli; settings: for Plant response rating, Barnyardgrass: 0 to 10 scale
Method in brief: (§1)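 Test chemicals, dissolved in a non-phytotoxic solvent, were applied to soil at planting and, at the same time, over foliage of seedlings at the one to four leaf stage.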

cocklebur = experiment: as above; format: in vivo, Xanthium pensylvanicum; settings: for Plant response rating, Cocklebur: 0 to 10 scale
Method in brief: as §1

cotton = experiment: as above; format: in vivo, Gossypium hirsutum; settings: for Plant response rating, Cotton: 0 to 10 scale
Method in brief: as §1

morningglory = experiment: as above; format: in vivo, Ipomoea hederacea; settings: for Plant response rating, Morningglory: 0 to 10 scale
Method in brief: as §1

rice [1] = experiment: as above; format: in vivo, Oryza sativa; settings: for Plant response rating, Rice: 0 to 10 scale
Method in brief: as §1

sorghum = experiment: as above; format: in vivo, Sorghum bicolor; settings: for Plant response rating, Sorghum: 0 to 10 scale
Method in brief: as §1

wheat = experiment: as above; format: in vivo, Triticum aestivum; settings: for Plant response rating, Wheat: 0 to 10 scale
Method in brief: as §1

wild oat = experiment: as above; format: in vivo, Avena fatua; settings: for Plant response rating, Wild oat: 0 to 10 scale
Method in brief: as §1

blackgrass = experiment: Test C preemergence/postemergence greenhouse plant response rating 0 to 100; format: in vivo, Alopecurus myosuroides; settings: for Plant response rating, Blackgrass: 125 g/ha, 0 to 100 scale
Method in brief: (§2)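 Compounds in non-phytotoxic solvent applied preemergence to sandy loam one day after planting, postemergence at the 1–4 leaf stage, or to ~2.5 cm floodwater over silt loam.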

crabgrass = experiment: as above; format: in vivo, Digitaria sanguinalis; settings: for Plant response rating, Crabgrass: 125 g/ha, 0 to 100 scale
Method in brief: as §2

rape = experiment: as above; format: in vivo, Brassica napus; settings: for Plant response rating, Rape: 125 g/ha, 0 to 100 scale
Method in brief: as §2

rice [2] = experiment: Test C flood test plant response rating 0 to 100; format: in vivo, Oryza sativa
Method in brief: as §2

umbrella sedge = experiment: Test C flood test plant response rating 0 to 100; format: in vivo, Cyperus difformis
Method in brief: as §2

[3] = POSTEMERGENCE section, flood test, Rate 2 g/ha
[4] = Rate 8 g/ha, under POSTEMERGENCE head (flood test species)
[5] = Rate 31 g/ha, under POSTEMERGENCE head (flood test species)
[6] = flood test species listed under POSTEMERGENCE, 125 g/ha, 0 to 100 scale

CCOCOc1cc(-c2nn3c(c2Cl)CCCC3)c(F)cc1Cl [Compound 59]
Plant response rating, Barnyardgrass (barnyardgrass; POSTEMERGENCE, Rate 50 g/ha): 5 | Plant response rating, Barnyardgrass (barnyardgrass; PREEMERGENCE, Rate 50 g/ha): 6 | Plant response rating (0 to 10 scale), Barnyardgrass (barnyardgrass; PREEMERGENCE, Rate 200 g/ha): 8 | Plant response rating, Barnyardgrass (barnyardgrass; Rate 200 g/ha, POSTEMERGENCE): 9 | Plant response rating, Cocklebur (cocklebur; POSTEMERGENCE, Rate 50 g/ha): 7 | Plant response rating, Cocklebur (cocklebur; PREEMERGENCE, Rate 50 g/ha): 0 | Plant response rating (0 to 10 scale), Cocklebur (cocklebur; PREEMERGENCE, Rate 200 g/ha): 8 | Plant response rating, Cocklebur (cocklebur; Rate 200 g/ha, POSTEMERGENCE): 10 | Plant response rating, Cotton (cotton; POSTEMERGENCE, Rate 50 g/ha): 10 | Plant response rating, Cotton (cotton; PREEMERGENCE, Rate 50 g/ha): 4 | Plant response rating (0 to 10 scale), Cotton (cotton; PREEMERGENCE, Rate 200 g/ha): 7 | Plant response rating, Cotton (cotton; Rate 200 g/ha, POSTEMERGENCE): 10 | Plant response rating, Morningglory (morningglory; POSTEMERGENCE, Rate 50 g/ha): 8 | Plant response rating, Morningglory (morningglory; PREEMERGENCE, Rate 50 g/ha): 2 | Plant response rating (0 to 10 scale), Morningglory (morningglory; PREEMERGENCE, Rate 200 g/ha): 6 | Plant response rating, Morningglory (morningglory; Rate 200 g/ha, POSTEMERGENCE): 10 | Plant response rating, Rice (rice [1]; POSTEMERGENCE, Rate 50 g/ha): 5 | Plant response rating, Rice (rice [1]; PREEMERGENCE, Rate 50 g/ha): 0 | Plant response rating (0 to 10 scale), Rice (rice [1]; PREEMERGENCE, Rate 200 g/ha): 1 | Plant response rating, Rice (rice [1]; Rate 200 g/ha, POSTEMERGENCE): 5 | Plant response rating, Sorghum (sorghum; POSTEMERGENCE, Rate 50 g/ha): 3 | Plant response rating, Sorghum (sorghum; PREEMERGENCE, Rate 50 g/ha): 1 | Plant response rating (0 to 10 scale), Sorghum (sorghum; PREEMERGENCE, Rate 200 g/ha): 5 | Plant response rating, Sorghum (sorghum; Rate 200 g/ha, POSTEMERGENCE): 4 | Plant response rating, Wheat (wheat; POSTEMERGENCE, Rate 50 g/ha): 7 | Plant response rating, Wheat (wheat; PREEMERGENCE, Rate 50 g/ha): 4 | Plant response rating (0 to 10 scale), Wheat (wheat; PREEMERGENCE, Rate 200 g/ha): 4 | Plant response rating, Wheat (wheat; Rate 200 g/ha, POSTEMERGENCE): 6 | Plant response rating, Wild oat (wild oat; POSTEMERGENCE, Rate 50 g/ha): 7 | Plant response rating, Wild oat (wild oat; PREEMERGENCE, Rate 50 g/ha): 2 | Plant response rating (0 to 10 scale), Wild oat (wild oat; PREEMERGENCE, Rate 200 g/ha): 7 | Plant response rating, Wild oat (wild oat; Rate 200 g/ha, POSTEMERGENCE): 7 | Plant response rating, Blackgrass (blackgrass; POSTEMERGENCE): 70 | Plant response rating (0 to 100), Blackgrass (blackgrass; POSTEMERGENCE, Rate 2 g/ha): 20 | Plant response rating, Blackgrass (blackgrass; PREEMERGENCE): 90 | Plant response rating (0 to 100), Blackgrass (blackgrass; PREEMERGENCE, Rate 2 g/ha): 0 | Plant response rating (0 to 100), Blackgrass (blackgrass; Rate 8 g/ha, POSTEMERGENCE): 30 | Plant response rating (0 to 100), Blackgrass (blackgrass; Rate 8 g/ha, PREEMERGENCE): 20 | Plant response rating (0 to 100), Blackgrass (blackgrass; Rate 31 g/ha, POSTEMERGENCE): 50 | Plant response rating (0 to 100), Blackgrass (blackgrass; Rate 31 g/ha, PREEMERGENCE): 50 | Plant response rating, Crabgrass (crabgrass; POSTEMERGENCE): 70 | Plant response rating (0 to 100), Crabgrass (crabgrass; POSTEMERGENCE, Rate 2 g/ha): 10 | Plant response rating, Crabgrass (crabgrass; PREEMERGENCE): 90 | Plant response rating (0 to 100), Crabgrass (crabgrass; PREEMERGENCE, Rate 2 g/ha): 0 | Plant response rating (0 to 100), Crabgrass (crabgrass; Rate 8 g/ha, POSTEMERGENCE): 30 | Plant response rating (0 to 100), Crabgrass (crabgrass; Rate 8 g/ha, PREEMERGENCE): 0 | Plant response rating (0 to 100), Crabgrass (crabgrass; Rate 31 g/ha, POSTEMERGENCE): 40 | Plant response rating (0 to 100), Crabgrass (crabgrass; Rate 31 g/ha, PREEMERGENCE): 30 | Plant response rating, Rape (rape; POSTEMERGENCE): 100 | Plant response rating (0 to 100), Rape (rape; POSTEMERGENCE, Rate 2 g/ha): 20 | Plant response rating, Rape (rape; PREEMERGENCE): 40 | Plant response rating (0 to 100), Rape (rape; PREEMERGENCE, Rate 2 g/ha): 0 | Plant response rating (0 to 100), Rape (rape; Rate 8 g/ha, POSTEMERGENCE): 40 | Plant response rating (0 to 100), Rape (rape; Rate 8 g/ha, PREEMERGENCE): 0 | Plant response rating (0 to 100), Rape (rape; Rate 31 g/ha, POSTEMERGENCE): 70 | Plant response rating (0 to 100), Rape (rape; Rate 31 g/ha, PREEMERGENCE): 0 | Plant response rating (0 to 100), Rice Japonica (rice [2]; [3]): 0 | Plant response rating (0 to 100), Rice Japonica (rice [2]; [4]): 0 | Plant response rating (0 to 100), Rice Japonica (rice [2]; [5]): 0 | Plant response rating Rice Japonica (rice [2]; [6]): 40 | Plant response rating (0 to 100), Umbrella sedge (umbrella sedge; [3]): 90 | Plant response rating (0 to 100), Umbrella sedge (umbrella sedge; [4]): 0 | Plant response rating (0 to 100), Umbrella sedge (umbrella sedge; [5]): 0 | Plant response rating Umbrella sedge (umbrella sedge; [6]): 0
